Experimental data published in US20210261538A1, “PROTEIN ARGININE METHYLTRANSFERASE 5 (PRMT5) DEGRADATION / DISRUPTION COMPOUNDS AND METHODS OF USE” (ICAHN SCHOOL OF MEDICINE AT MOUNT SINAI, priority 2018, published 2021).
“Also recorded” adds a separate entry of the source.

Legend:
PRMT5 [1] = biological target: T1, PRMT5 (Homo sapiens, UniProt O14744); experiment: Western blot of PRMT5 protein levels in HeLa cells; format: cell-based; parameters: endogenous in cells; conditions: 5 μM, 6 days
Method: (§1) MCF-7 cells, HEK293T cells and HeLa cells were cultured in Dulbecco's Modified Eagle Medium (DMEM) supplemented with 10% fetal bovine serum (FBS) in 5% CO2 at 37° C. Jurkat cells were cultured in RPMI 1640 medium supplemented with 10% FBS in 5% CO2 at 37° C. H2171 cells were cultured in HITES medium supplemented with 10% FBS in 5% CO2 at 37° C. HCT116 were cultured in McCoy's 5A medium supplemented with 10% fetal bovine serum (FBS) in 5% CO2 at 37° C. All the cells lines were treated with 5 μM (or indicated concentration) of PRMT5 inhibitor (EPZ015666) or degraders, or equivalent volume of DMSO for 6 days (or indicated time points). Fresh compounds were constituted in medium and used for every 2 days. The antibodies used in this study are: PRMT5 antibody (Active Motif), (3-actin antibody (Sigma), SDMA antibody (collaboration with Cell Signaling Technologies). Cell cultures were harvested at the end of compound treatments and applied subjected to western blotting assay. Briefly, cells were washed with PBS and lysed with RIPA lysis buffer for 20 minutes on ice. Then lysates were centrifuged and the clear supernatant were collected. SDS loading buffer was added to the lysates and then the mixture was boiled at 100° C. for 5 minutes. Samples were loaded to 10% or 12% SDS-PAGE gel and ran at 120V for 1.5 hours. […]

PRMT5 [2] = biological target: T1, PRMT5; experiment: Western blot of PRMT5 protein levels in H2171 cells; format: cell-based; parameters: endogenous in cells; conditions: 5 μM, 6 days
Method: as §1

MCF-7 cells = experiment: Cell proliferation assay (Cell-Titer Glo) in MCF-7 cells; format: cell-based; conditions: 5 μM, 10 days
Method: The same starting number of MCF-7 cells were treated with DMSO, 5 μM EPZ015666 or YS43-22 for up to 10 days. Every two days, fresh compounds were constituted in DMEM medium and added to the cell culture. Relative cell numbers were counted every two days (i.e. day 0, 2, 4, 6, 8 and 10) using Cell-Titer Glo kit (Promega). MCF-7 cells were treated with DMSO, EPZ015666 (5 μM), or YS43-22 (5 μM) for 10 days.

[3] = Standard PK study in mice; format: in vivo, male Swiss Albino mice; conditions: single 150 mg/kg IP injection
Method: Standard PK studies were conducted using male Swiss Albino mice. A single 150 mg/kg intraperitoneal (IP) injection of YS43-22 was evaluated. Plasma concentrations of YS43-22 reported at each of the six time points (15 min, 30 min, 1 h, 2 h, 6 h, and 12 h post dosing) are the average values from 3 test animals.

PRMT5 [4] = biological target: T1, PRMT5; experiment: Western blot of PRMT5 protein levels in MCF-7 cells; format: cell-based; parameters: endogenous in cells; host or cells: MCF-7
Method: MCF-7 cells, HEK293T cells and HeLa cells were cultured in Dulbecco's Modified Eagle Medium (DMEM) supplemented with 10% fetal bovine serum (FBS) in 5% CO2 at 37° C. Jurkat cells were cultured in RPMI 1640 medium supplemented with 10% FBS in 5% CO2 at 37° C. H2171 cells were cultured in HITES medium supplemented with 10% FBS in 5% CO2 at 37° C. HCT116 were cultured in McCoy's 5A medium supplemented with 10% fetal bovine serum (FBS) in 5% CO2 at 37° C. All the cells lines were treated with 5 μM (or indicated concentration) of PRMT5 inhibitor (EPZ015666) or degraders, or equivalent volume of DMSO for 6 days (or indicated time points). Fresh compounds were constituted in medium and used for every 2 days. The antibodies used in this study are: PRMT5 antibody (Active Motif), (3-actin antibody (Sigma), SDMA antibody (collaboration with Cell Signaling Technologies). Cell cultures were harvested at the end of compound treatments and applied subjected to western blotting assay. Briefly, cells were washed with PBS and lysed with RIPA lysis buffer for 20 minutes on ice. Then lysates were centrifuged and the clear supernatant were collected. SDS loading buffer was added to the lysates and then the mixture was boiled at 100° C. for 5 minutes. Samples were loaded to 10% or 12% SDS-PAGE gel and ran at 120V for 1.5 hours. Then the proteins were transferred to PVDF membrane and blocked in 5% milk fat at room temperature for 1 hour. Then the membranes were incubated with indicated antibodies at 4° C. overnight. Membranes were washed with PBST buffer three times for 10 minutes each time and incubated with HRP-conjugated (horse radish peroxidase) secondary antibodies at room temperature for 1 hour. Again the membranes were washed with PBST buffer three times for 10 minutes each time. Finally, the indicated proteins on the membranes were visualized with ECL (enhanced chemiluminescence) reagents. MCF-7 cells were treated with DMSO or indicated compounds at 5 μM for 6 days. […] MCF-7 cells were treated with DMSO or indicated serial dilutions of compounds for 6 days. The PRMT5 protein levels were determined by Western blot.

PRMT5 [5] = biological target: T1, PRMT5; experiment: Western blot of PRMT5 protein levels in multiple cell lines; format: cell-based; parameters: endogenous in cells; host or cells: MCF-7; conditions: MCF-7, Hela, Jurkat, HCT116, 293T and H2171 cells, 5 μM, 6 days
Method: as §1

PRMT5 [6] = biological target: T1, PRMT5; experiment: Western blot of PRMT5 protein levels in HCT116 cells; format: cell-based; parameters: endogenous in cells; conditions: 5 μM, 6 days
Method: as §1

PRMT5 [7] = biological target: T1, PRMT5; experiment: Western blot of PRMT5 protein levels in 293T cells; format: cell-based; parameters: endogenous in cells; host or cells: 293T (HEK293T); conditions: 5 μM, 6 days
Method: as §1

T1 sequence (O14744 whole entry): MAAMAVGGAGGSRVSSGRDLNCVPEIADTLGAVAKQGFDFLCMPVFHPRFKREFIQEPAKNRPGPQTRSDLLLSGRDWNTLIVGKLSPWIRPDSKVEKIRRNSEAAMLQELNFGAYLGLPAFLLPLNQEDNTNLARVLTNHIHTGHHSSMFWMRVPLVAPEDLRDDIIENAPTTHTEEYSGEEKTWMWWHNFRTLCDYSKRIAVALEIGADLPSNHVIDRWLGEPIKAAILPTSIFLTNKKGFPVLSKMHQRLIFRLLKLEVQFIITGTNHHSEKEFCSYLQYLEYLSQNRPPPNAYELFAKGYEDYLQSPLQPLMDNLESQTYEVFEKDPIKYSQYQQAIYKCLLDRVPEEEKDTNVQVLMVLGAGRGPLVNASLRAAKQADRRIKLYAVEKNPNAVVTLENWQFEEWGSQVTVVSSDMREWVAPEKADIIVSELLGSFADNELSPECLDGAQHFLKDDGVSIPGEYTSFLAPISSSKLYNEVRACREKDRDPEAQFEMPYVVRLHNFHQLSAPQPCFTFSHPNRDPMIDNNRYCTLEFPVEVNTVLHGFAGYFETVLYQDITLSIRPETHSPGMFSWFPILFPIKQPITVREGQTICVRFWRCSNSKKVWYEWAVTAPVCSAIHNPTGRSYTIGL
T1 sequence (Q9BQA1 whole entry partner): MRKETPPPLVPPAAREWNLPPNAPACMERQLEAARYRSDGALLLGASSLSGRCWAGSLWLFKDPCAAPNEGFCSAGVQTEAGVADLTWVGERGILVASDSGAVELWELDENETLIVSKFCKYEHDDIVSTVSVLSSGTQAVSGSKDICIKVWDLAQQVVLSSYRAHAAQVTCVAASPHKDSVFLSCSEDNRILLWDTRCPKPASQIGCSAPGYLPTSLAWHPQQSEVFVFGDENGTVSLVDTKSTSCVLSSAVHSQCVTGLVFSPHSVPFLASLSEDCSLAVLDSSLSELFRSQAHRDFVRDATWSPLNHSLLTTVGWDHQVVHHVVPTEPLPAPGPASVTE

- PRMT5 protein levels (PRMT5 [1]): moderately
- PRMT5 protein levels (PRMT5 [2]): not obviously
- clinical observations [3]: no abnormal clinical observations
- bioavailability (plasma concentrations) ([3]; 15 min to 12 h post dosing, 150 mg/kg): Bioavailable
- suppressing PRMT5 expression (PRMT5 [4]; MCF-7 cells (Examples 90-92)): especially effective
- PRMT5 protein levels (PRMT5 [4]; MCF-7 cells, 5 μM, 6 days, Western blot): very well
- PRMT5 protein levels in different cell lines (PRMT5 [5]): significantly reduced
- relative potency in down-regulation of PRMT5 protein levels (PRMT5 [5]): more potent than YS43-8
- PRMT5 protein levels (PRMT5 [6]): slightly
- PRMT5 protein levels (PRMT5 [7]): slightly
Compound: Cc1ncsc1-c1ccc([C@H](C)NC(=O)[C@@H]2C[C@@H](O)CN2C(=O)[C@@H](NC(=O)COCCOCCOCCOCCOCC(=O)N2CC(Nc3cc(C(=O)NC[C@H](O)CN4CCc5ccccc5C4)ncn3)C2)C(C)(C)C)cc1 [YS43-22, N-((S)-3-(3,4-dihydroisoquinolin-2(1H)-yl)-2-hydroxypropyl)-6-((1-((S)-19-((2S,4R)-4-hydroxy-2-(((S)-1-(4-(4-methylthiazol-5-yl)phenyl)ethyl)carbamoyl)pyrrolidine-1-carbonyl)-20,20-dimethyl-17-oxo-3,6,9,12,15-pentaoxa-18-azahenicosanoyl)azetidin-3-yl)amino)pyrimidine-4-carboxamide]
- cell growth of MCF-7 cells (MCF-7 cells): significantly reduced; also recorded: significant potency; also recorded: significantly inhibited
- PRMT5 protein levels, concentration and time dependence (PRMT5 [4]; MCF-7 cells, serial dilutions of compounds, 6 days, Western blot): concentration- and time-dependent; also recorded: significantly reduced
